Data on 7 compounds can be found in article PMC3405817 (Evidence-based Complementary and Alternative Medicine : eCAM, 2012).

Series [1] has as its system human promonocytic HL-CZ cells. Description: Cell viability assay (trypan blue), HL-CZ cells. Particulars: 48 hours, trypan blue staining.
The nature of series [2]: Cell viability assay (trypan blue), BHK-21 cells. The following applies: hamster, CC50 BHK-21, BHK-21 cells, trypan blue staining.
The next series relates to BHK-21 cells. Description: Cell viability assay (trypan blue), BHK-21 cells. Particulars: BHK-21 cells, 48 hours, trypan blue staining.
Series [3] is described as follows: Cell viability assay (trypan blue), HL-CZ cells. The following applies: human, CC50 HL-CZ, trypan blue staining.
Series [4] concerns JEV. Kind of series: Virus yield in JEV-infected HL-CZ cells by plaque assay. The following applies: 10 μg/mL, JEV MOI 0.5, after 24 h incubation.
For series [5], the system named is virulent JEV strain Beijing-1. Kind of series: Mouse protection assay against lethal JEV challenge. It counts as in vivo. The following applies: BALB/c mice, i.c. JEV 1 × 10^5 pfu, 1 mg/kg i.c. at 2, 24, 48 h after infection. The protocol:
Groups (n = 10) of 2-week-old BALB/c mice were intracerebrally infected with 1 × 10^5 pfu of virulent JEV strain Beijing-1 then underwent three intracerebral treatments with 30 μg/100 μL of I. indigotica extract or marker compound (1 mg/kg of body weight) using 100 μL syringes at 2, 24, and 48 h after infection. Two additional groups were infected with JEV and received PBS or DMSO (0.05%) treatment as solvent controls. Survival rates were monitored every day for one week.

Series [6] has as its system JEV. Description: Plaque reduction and time-of-addition assay in BHK-21 cells. The following applies: Japanese encephalitis virus.
Series [7] deals with JEV. Kind of series: Virucidal activity assay. It is filed as cell-based. The following applies: Japanese encephalitis virus; JEV 10^5 pfu preincubated 60 min at 4°C, 1000-fold dilution, residual infectivity on BHK-21. The protocol: Virucidal assay was based on prior reports. […] A 1000-fold dilution of each extract/virus or compound/virus mixture was added onto BHK-21 cell monolayer in 6-well plates.

Series [8] deals with JEV. Description: Virus attachment assay (4°C, BHK-21 monolayer). It counts as cell-based. The following applies: Japanese encephalitis virus; JEV 120 pfu, 4°C 1 h on BHK-21 monolayer, residual infectivity by plaque assay. The protocol: After 3-day incubation at 37°C in a 5% CO2 incubator, plaques were stained, as described in plaque assay.
[9] abbreviates: BHK-21, 1 h, read-out: IC50 of posttreatment.
Setting [10] is: BHK-21, 1 h, read-out: IC50 of simultaneous treatment.
The mark [11] stands for this setting: BHK-21, read-out: IC50 of pretreatment.

SMILES strings stand for the structures. ≈ marks a conversion by molar mass, not a printed value.

Regarding `O=c1[nH]c2ccccc2o1` [2-Benzoxazolinone, 2-benzoxazolinone], the “CC50 HL-CZ” value in [1] amounted to 67.33 ± 10.2 µg/mL (≈ 498 µM). In series [2], this compound showed a CC50 at 48 h of under 25 µg/mL. Further, in the series on BHK-21 cells, the “CC50 BHK-21” value was 19.92 ± 1.57 µg/mL (≈ 147 µM).
As for `Nc1ncnc2c1ncn2[C@@H]1O[C@H](CO)[C@@H](O)[C@H]1O` [Adenosine, adenosine], the “CC50 HL-CZ” value in [1] is 15.38 ± 1.05 µg/mL (≈ 57.6 µM). The CC50 at 48 h in [3] and in series [2] was under 25 µg/mL throughout. Also, the “CC50 BHK-21” value in the series with BHK-21 cells came to 24.10 ± 2.57 µg/mL (≈ 90.2 µM).
As to `C=C(C)[C@@H]1CC[C@]2(CO)CC[C@]3(C)[C@H](CC[C@@H]4[C@@]5(C)CC[C@H](O)C(C)(C)[C@@H]5CC[C@]43C)[C@@H]12` [Betulin, betulin], the “CC50 HL-CZ” value in [1] came to 2.10 ± 0.78 µg/mL (≈ 4.74 µM). This compound also yielded a CC50 at 48 h in [2] of under 25 µg/mL. Also, in the series on BHK-21 cells, the “CC50 BHK-21” value turned out to be 13.30 ± 2.58 µg/mL (≈ 30 µM).
With `O=C1/C(=C2\Nc3ccccc3C2=O)Nc2ccccc21` [Indigo, indigo], the virus yield reduced entry with JEV [4] is given as “approximately 40%”. Further, the “Survival rate on Day 6 after infection” value in series [5] was 50%. Besides, the IC50 was over 50 µg/mL with JEV [6] (setting [9]); 37.5 ± 3.18 µg/mL (≈ 143 µM) in the series on JEV [6] (setting [10]); 11.79 ± 0.1 µg/mL (≈ 45 µM) in the series with JEV [6] (setting [11]); 3.03 ± 3.18 µg/mL (≈ 11.6 µM) with JEV [7]; 5.15 ± 0.18 µg/mL (≈ 19.6 µM) with JEV [8]. Half-maximal cytotoxicity in series [3] (CC50 at 48 h) was put at 99.41 ± 0.54 µg/mL (≈ 379 µM). In addition, the entries for the “CC50 BHK-21” value in the series with BHK-21 cells and in the series on BHK-21 cells (listed as indigo) were 86.88 ± 3.72 µg/mL (≈ 331 µM) and 26.88 µg/mL (≈ 102 µM), respectively.
Consider `O=C1Nc2ccccc2/C1=C1/Nc2ccccc2C1=O` [Indirubin, indirubin], for which the virus yield reduced result in the series with JEV [4] was “approximately 40%”. Besides, the “Survival rate on Day 6 after infection” value in series [5] is recorded as 70%. Also, the IC50 with JEV [6] (setting [9]) is over 50 µg/mL; with JEV [6] (setting [10]) it was 13.7 ± 2.83 µg/mL (≈ 52.2 µM); in the series with JEV [6] (setting [11]), 23.5 ± 0.89 µg/mL (≈ 89.6 µM); in the series on JEV [7] it was 0.47 ± 2.83 µg/mL (≈ 1.79 µM); in the series with JEV [8] it was 5.1 ± 1.32 µg/mL (≈ 19.4 µM). Moreover, the CC50 at 48 h in [3] was 64.9 ± 1.08 µg/mL (≈ 247 µM); in series [2], 57.5 µg/mL (≈ 219 µM). The “CC50 BHK-21” value with BHK-21 cells is over 100 µg/mL.
For `C=C(C)[C@@H]1CC[C@]2(C)CC[C@]3(C)[C@H](CC[C@@H]4[C@@]5(C)CC[C@H](O)C(C)(C)[C@@H]5CC[C@]43C)[C@@H]12` [Lupeol, lupeol], the “CC50 HL-CZ” value in [1] amounted to 3.44 ± 1.17 µg/mL (≈ 8.06 µM). Also, in the series on BHK-21 cells, the “CC50 BHK-21” value was determined as 9.53 ± 1.32 µg/mL (≈ 22.3 µM).
The matching figures for `O=C1c2ccccc2-n2c1nc1ccccc1c2=O` [Tryptathrin, tryptanthrin]: 1.74 ± 0.34 µg/mL (≈ 7.01 µM) and 4.57 ± 0.26 µg/mL (≈ 18.4 µM).

Broadly, the CC50 is the concentration giving 50% cytotoxicity. The low end stands for harm at low concentration, the high end for better tolerance by the cells. The IC50 is the concentration needed to halve the response being measured.
